Laboratory results published in publication PMC4302236, “Functional profile of a novel modulator of serotonin, dopamine, and glutamate neurotransmission” (Psychopharmacology, 2014).

Experiments:
Histamine H1 receptor = molecular target: T1, Histamine H1 receptor (Bos taurus, UniProt P30546); test: Histamine H1 receptor binding in bovine cerebellum (3H-pyrilamine)
T1 construct: tissue NovaScreen/Caliper/Perkin-Elmer; host or cells: bovine cerebellum
Protocol: (§1) Binding activity at a variety of receptor targets, including recombinant human serotonin receptors and rat dopamine D2 and human recombinant dopamine D4 receptors, was measured in vitro using standard radioligand displacement methods (NovaScreen/Caliper/Perkin-Elmer, Hanover, MD), to determine affinity. […] D2 receptor binding was measured at rat recombinant receptors expressed in Chinese hamster ovary (CHO) cells and using ^3H-methylspiperone as a radioligand and in rat striatum using ^3H-sulpiride as a radioligand. […] D4 receptor binding was measured at human recombinant receptor s expressed in CHO cells and using ^3 H-methylspiperone as a radioligand. D1 receptor binding at human recombinant receptor was measured in CHO cells using ^3H-SCH23390 as a radioligand. 5-HT2C receptor binding was measured in pig choroid plexus using ^3 H-methylsergide as a radioligand. Binding to alpha adrenergic receptors in the rat frontal cortex (alpha1A) or rat liver (alpha1B) was measured using ^3H-prazosin as a radioligand. Histamine H1 receptor binding was measured in bovine cere- bellum using ^3H-pyrilamine as a radioligand. […] The affinity constant (Ki) for each receptor subtype or inhibitory concentration 50 (IC50) for inhibition in functional assays was calculated.

5-HT2C receptor = molecular target: T2, 5-HT2C receptor (Sus scrofa, UniProt K7GSR7); test: 5-HT2C receptor binding in pig choroid plexus (3H-methylsergide)
T2 construct: tissue NovaScreen/Caliper/Perkin-Elmer; host or cells: pig choroid plexus
T2 sequence (K7GSR7 1-457): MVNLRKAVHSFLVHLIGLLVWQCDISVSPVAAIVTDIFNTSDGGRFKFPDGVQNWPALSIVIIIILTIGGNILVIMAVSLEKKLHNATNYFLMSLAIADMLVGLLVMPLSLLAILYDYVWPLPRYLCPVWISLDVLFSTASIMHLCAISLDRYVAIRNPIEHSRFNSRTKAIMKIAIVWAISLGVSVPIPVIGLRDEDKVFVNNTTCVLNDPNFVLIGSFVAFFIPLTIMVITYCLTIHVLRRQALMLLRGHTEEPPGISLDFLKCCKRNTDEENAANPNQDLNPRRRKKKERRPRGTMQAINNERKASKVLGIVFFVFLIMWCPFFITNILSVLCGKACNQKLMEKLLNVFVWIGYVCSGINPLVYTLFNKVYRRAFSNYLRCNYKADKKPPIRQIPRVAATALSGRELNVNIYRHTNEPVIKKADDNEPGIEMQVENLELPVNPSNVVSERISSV
Protocol: as §1

[1] = molecular target: T3, human recombinant D2-short receptor (Homo sapiens, UniProt P14416); test: Blockade of dopamine-induced inhibition of forskolin-stimulated cAMP accumulation in CHO cells; assay type: cell-based; conditions: forskolin 10 μM, read-out: IC50, blocking dopamine inhibition of forskolin-stimulated cAMP accumulation
T3 construct: expressed in transfected cells; host or cells: CHO
T3 sequence (P14416 1-414 isoform P14416-2): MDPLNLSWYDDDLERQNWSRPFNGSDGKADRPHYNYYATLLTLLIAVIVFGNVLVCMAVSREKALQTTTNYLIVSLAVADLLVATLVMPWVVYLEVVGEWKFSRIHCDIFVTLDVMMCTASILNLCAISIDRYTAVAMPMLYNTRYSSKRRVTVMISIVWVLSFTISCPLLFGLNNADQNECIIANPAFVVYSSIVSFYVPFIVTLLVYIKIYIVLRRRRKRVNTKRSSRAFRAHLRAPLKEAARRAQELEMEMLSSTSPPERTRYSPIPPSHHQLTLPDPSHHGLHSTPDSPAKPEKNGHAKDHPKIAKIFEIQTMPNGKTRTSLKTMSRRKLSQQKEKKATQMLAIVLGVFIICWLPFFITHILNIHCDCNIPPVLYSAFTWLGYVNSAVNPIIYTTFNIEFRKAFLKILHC

Dopamine, D4 = molecular target: T4, Dopamine, D4 (Homo sapiens, UniProt P21917); test: NovaScreen broad selectivity panel at 100 nM, Dopamine D4; conditions: average of replicate tubes, read-out: % Inhibition of binding at 100 nM concentration, Dopamine D4
T4 sequence (P21917 1-419): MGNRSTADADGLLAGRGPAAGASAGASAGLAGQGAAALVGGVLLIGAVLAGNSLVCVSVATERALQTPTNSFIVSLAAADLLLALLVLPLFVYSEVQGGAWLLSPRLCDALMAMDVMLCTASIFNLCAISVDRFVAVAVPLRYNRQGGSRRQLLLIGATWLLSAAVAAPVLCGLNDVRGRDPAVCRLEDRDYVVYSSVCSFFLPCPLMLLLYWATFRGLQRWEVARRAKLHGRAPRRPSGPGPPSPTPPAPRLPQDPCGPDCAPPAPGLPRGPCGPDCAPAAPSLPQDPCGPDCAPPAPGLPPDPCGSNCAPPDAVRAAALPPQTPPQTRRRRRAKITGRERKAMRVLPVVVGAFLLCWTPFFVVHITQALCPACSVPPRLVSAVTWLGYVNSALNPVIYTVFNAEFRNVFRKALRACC
Protocol: as §1

[2] = test system: panel of 66 receptors, ion channels, and enzymes; test: NovaScreen broad selectivity panel at 100 nM, whole panel; assay type: binding
5-HT2B receptors = 5-HT2B receptors (Homo sapiens, UniProt P41595); test: Binding to 5-HT2B receptors
Sequence of 5-HT2B receptors (P41595 whole entry): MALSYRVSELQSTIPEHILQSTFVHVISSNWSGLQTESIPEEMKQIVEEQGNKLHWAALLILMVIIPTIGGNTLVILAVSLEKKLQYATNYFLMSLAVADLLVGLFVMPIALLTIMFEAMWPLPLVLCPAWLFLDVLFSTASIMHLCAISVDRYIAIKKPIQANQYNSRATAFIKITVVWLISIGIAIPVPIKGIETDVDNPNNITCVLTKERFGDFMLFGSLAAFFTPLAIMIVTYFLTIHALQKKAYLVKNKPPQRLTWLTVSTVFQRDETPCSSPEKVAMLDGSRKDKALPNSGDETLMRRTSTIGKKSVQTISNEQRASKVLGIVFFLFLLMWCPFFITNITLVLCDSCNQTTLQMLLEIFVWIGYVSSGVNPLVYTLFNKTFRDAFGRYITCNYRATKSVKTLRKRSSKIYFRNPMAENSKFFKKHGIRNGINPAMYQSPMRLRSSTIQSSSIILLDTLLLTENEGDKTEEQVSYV

[3] = test system: muscarinic cholinergic receptors; test: Binding to muscarinic cholinergic receptors
DOI-induced headtwitch = test: Inhibition of DOI-induced headtwitch (in vivo 5-HT2A antagonism); conditions: mice, p.o., 30 min prior to DOI […] i.p.
Protocol: Inhibition of DOI-induced headtwitch was measured as a functional assay for the in vivo potency of the compound as an antagonist at 5-HT2A receptors. […] Headtwitches were then counted for 5 min, starting 10 min after DOI injection. An ID50 for inhibition of DOI-induced headtwitch was calculated using a four-parameter logistical fit (Excel Fit software, IDBS).

[4] = test system: GluN2B phosphorylated at tyrosine (Y) 1472; test: GluN2B Y1472 phosphorylation state in nucleus accumbens; assay type: in vivo; conditions: mice, 3 mg/kg p.o., 120 min after dosing
Protocol: Brains were rapidly removed from the skull. […] Brain tissue was prepared for SDS-PAGE as described above, and protein homogenates (15 μg) were separated on 3-7 % gradient gels, and proteins transferred to nitrocellulose membranes. Portions of each membrane were immunoblotted for GluN2B phosphorylated at […] (rabbit polyclonal) and total GluN2B (mouse monoclonal) (Thermo Fisher Scientific, Rockford, IL).

social defeat model = test: Social interaction behavior after repeated social defeat; assay type: in vivo; conditions: mice, 1 mg/kg i.p. once daily 28 days after 10 days defeat; 150 s test
Protocol: Mice were tested for social isolation behavior after repeated exposure (for 10 days) to an aggressive resident mouse in the social defeat paradigm as described by [Berton et al. (2006)]. […] On the day after the last drug or vehicle treatment, the mice were placed in an open field in the presence of a resident mouse (within a smaller cage) and the animal’s behavior recorded by videotape for 150 s. Videotracking software (Noldus, Netherlands) was used to calculate the total time each mouse spent in specified open-field quadrants, defined schematically in Fig. 8. The total time (s) spent by mice representing each drug treatment group in the interaction zone (Fig. 8) in proximity to the resident mouse or, in the corner zones, at a distance from the resident mouse (Fig. 8) was expressed as a mean (±SEM).

forelimb catalepsy = conditions: mouse, in vivo
Protocol: Forelimb catalepsy was measured using the bar grip test. Mice were placed in a Lucite mouse cage outfitted with a 3-mm diameter wooden rod suspended 4 cm from the floor of the cage. During testing, the mouse was allowed to grip the bar firmly with hind legs placed firmly on the floor of the cage. The mouse was required to maintain this posture for at least 10 s for a valid test session. Catalepsy was then quantitated by recording the latency (in seconds) to step both front paws down to the floor of the cage up to a maximum time of 120 s. If the mouse stepped off the bar immediately (less than 10 s), another attempt was made up to a maximum of ten attempts. The longest duration of immobility was recorded if none of the ten attempts were beyond 10 s. Catalepsy was measured for each mouse at 2, 3, 4, and 6 h after drug administration. Mean forelimb catalepsy time (in seconds) was calculated across each group and time point. Data were analyzed using ANOVA with Newman–Keuls post hoc test.

[5] = radioligand displacement, unit inferred

T1 sequence (P30546 whole entry): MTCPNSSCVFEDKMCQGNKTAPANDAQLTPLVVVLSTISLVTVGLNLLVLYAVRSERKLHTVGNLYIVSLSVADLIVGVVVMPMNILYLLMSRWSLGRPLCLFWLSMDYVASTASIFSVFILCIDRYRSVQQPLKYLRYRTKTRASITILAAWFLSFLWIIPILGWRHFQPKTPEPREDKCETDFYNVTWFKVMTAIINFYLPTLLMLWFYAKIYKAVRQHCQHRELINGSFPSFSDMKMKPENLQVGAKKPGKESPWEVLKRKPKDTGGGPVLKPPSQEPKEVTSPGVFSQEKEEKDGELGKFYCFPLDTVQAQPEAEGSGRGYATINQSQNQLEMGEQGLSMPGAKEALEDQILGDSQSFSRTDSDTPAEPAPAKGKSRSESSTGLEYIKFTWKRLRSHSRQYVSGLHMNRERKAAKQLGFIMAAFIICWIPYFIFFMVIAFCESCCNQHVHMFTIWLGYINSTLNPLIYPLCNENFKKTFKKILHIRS

CN1CCN2c3c(cccc31)[C@@H]1CN(CCCC(=O)c3ccc(F)cc3)CC[C@@H]12 [ITI-007, 1-(4-fluoro-phenyl)-4-((6bR,10aS)-3-methyl-2,3,6b,9,10,10a-hexahydro-1H,7H-pyrido[3′,4′:4,5]pyrrolo[1,2,3-de]quinoxalin-8-yl)-butan-1-one]
Binding to histamine H1 receptors (Histamine H1 receptor): no significant binding | Ki (Histamine H1 receptor; [5]): > 1000 nM | Binding to 5-HT2C receptors (5-HT2C receptor): did not significantly bind | Ki (5-HT2C receptor; [5]): 173 nM | IC50 [1]: 338 nM | inhibition at 0.1 µM (Dopamine, D4): 64.3% | Binding to the other targets of the panel ([2]; 100 nM, custom panel of 66 receptors, ion channels, and enzymes): did not bind significantly | Ki ([2]; read-out: projected Ki values (>50 % binding inhibition), single concentration 100 nM, at the 5-HT2A, D1, D2, D4, alpha1A and alpha1B receptors, and at SERT): ≤ 100 nM | Binding to 5-HT2B receptors (5-HT2B receptors): did not significantly bind | Binding to muscarinic cholinergic receptors (e.g., M3 subclasses) [3]: no significant binding | ID50, inhibition of DOI-induced headtwitch (DOI-induced headtwitch): 0.09 mg/kg | GluN2B phosphorylation at Y1472 in nucleus accumbens [4]: 180±20 % of control | Time spent in interaction zone (social behavior) after chronic social defeat (social defeat model): no such reduction in social behavior | Cataleptogenic activity (forelimb catalepsy): no demonstrable cataleptogenic activity | Forelimb catalepsy, bar grip test (forelimb catalepsy; po, 30 mg/kg): statistically significant increase in forelimb catalepsy
